Reference: patent US20230339983A1, “FLUORESCENT COMPOUNDS SPECIFIC FOR PLURIPOTENT STEM CELLS AND REPROGRAMMING-READY CELLS AND METHODS OF USING THE SAME” (Agency for Science, Technology and Research, priority 2018, published 2023)

Legend:
[1] = test system: reprogramming DPSCs at 7 dpn; assay: Fluorescent subcellular organelle co-staining; assay type: cell-based, human; conditions: confocal; ER, Golgi, lysosome, mitochondria marker dyes
Source text: Reprogrammed DPSCs at 7 dpn on MG were stained for cell organelle marker dyes (Molecular Probes) for endoplasmic reticulum (ER) (ER-Tracker™ Green (BODIPY® FL Glibenclamide)), Golgi complex (BODIPY® FL C5-Ceramide (N-(4,4-Difluoro-5,7-Dimethyl-4-Bora-3a,4a-Diaza-s-Indacene-3-Pentanoyl)Sphingosine)), lysosome (LysoTracker® Green DND-26), or mitochondria (MitoTracker® Green FM). Confocal images were taken to visualize the staining.
To determine the subcellular organelle localization of BDL-E5 in reprogramming cells, 7 dpn DPSCs on MG were stained for BDL-E5 and organelle marker dyes for endoplasmic reticulum (ER), Golgi complex, lysosome, or mitochondria.

reprogramming DPSCs = assay: BDL-E5 live staining time course of episomally reprogrammed DPSCs on MG; assay type: cell-based, human
Experimental: (§1) Episomal plasmids developed by Yamanaka's lab were obtained from Addgene: pCXLEhOct3/4-shp53-F (Addgene #27077), pCXLE-hSK (Addgene #27078), pCXLE-hUL (Addgene #27080) and pCXLE-EGFP (Addgene #27082) (Okita, et al. (2011). Nat Methods 8, 409-412). 1×10^6 cells were suspended together with 1 μg of each episomal vector in Nucleofector solution supplied in the Nucleofector Kit R (Lonza). Then the cells were transfected with the Program FF-113 on a Nucleofector 2b Device. The transfected cells were then cultured in ASC or DPSC medium (MSC medium) supplemented with 0.5 mM sodium butyrate, with daily media change. On Day 7 dpn, 1×10^5 viable cells were seeded over MEF feeders (GlobalStem) into one well of a 6-well plate for feeder-based iPS derivation; 2×10^5 viable cells were seeded for feeder-free iPS derivation into one well of a 6-well plate pre-coated with Matrigel (Corning). The next day, MSC medium was changed to feeder-based hES medium (DMEM/F12 supplemented with 20% knock out serum replacement, 1% GlutaMAX, 1% NEAA, Pen/Strep, 0.1 mM p-mercaptoethanol and 10 ng/ml b-FGF) or to feeder-free mTeSR1 (StemCell Technologies), supplemented with sodium butyrate. At 12 dpn, supplementation of sodium butyrate was stopped, and conditioned further with SMC4 cocktail (consisting of small molecules: PD0325901, CHIR99021, Thiazovivin, and SB431542 (FOCUS Biomolecules)) in hES medium/mTeSR1. This media supplement was continued until initial colony formation began.
(§2) Reprogrammed cells were immune-stained with fluorescent live cell stain TRA-1-60 (R&D Systems, GloLIVE NL557) as per manufacturer's instructions. After incubating with the live staining antibodies for 30 min and Hoechst 33342 for 10 min, cells were washed 3 times with PBS and images with the Cy5 and DAPI channels, respectively, were immediately captured.
(§3) Further experiments were carried out using BDL-E5. To determine whether BDL-E5 identifies the early stages of pluripotency, ASCs and DPSCs were reprogrammed using nucleofection of episomal vectors, and seeded onto MG-coated plates (feeder-free, viral-free reprogramming method). […]

[2] = test system: reprogrammed SC-ASCs and VS-ASCs; assay: FACS of reprogrammed ASCs stained with BDL-E5 at 14 dpn and iPS colony count; assay type: cell-based, human; conditions: for iPS colonies from BDL-E5+ versus BDL-E5- sorted cells: seeded on MEF; for percentage of cells staining negatively / percentage of cells staining positively: FACS at 14 dpn
Source text: WAT was isolated from subcutaneous (abdominal region) and visceral (omental region) depots from 2 human volunteers (S15-S16, undergoing bariatric surgery, with approval by the National Healthcare Group Domain Specific Review Board at National Healthcare Group, Singapore) as described previously (Ong, et al. (2014). Stem Cell Reports 2, 171-179; Takeda, et al. (2016). Diabetes 65, 1164-1178). […]. ASCs were isolated from WAT and cultured, as previously described (Sugii, et al. (2011). Nature Protoc 6, 346-358). Cells only up to passage 5 were used for experiments. MSC cell surface markers and multipotency of ASCs used herein were confirmed by flow cytometry and differentiation assays, respectively (Ong, et al. (2014). Stem Cell Reports 2, 171-179).
Reprogrammed ASCs and DPSCs, AiPS and DiPS on D7 or D14 dpn were stained with BDL-E5 for 1 hour and then harvested using TrypLE and resuspended in 1×PBS. The cells were then subjected to FACS in the MoFlo XDP Cell Sorter (Beckman Coulter) under sterile conditions.
Next, the inventors investigated whether the probe was useful in assisting reprogramming selection of obese patient-derived ASCs from subcutaneous (SC) and visceral (VS) fat depots. […] FIG. 10A (iii) and (iv) represents the unstained ASCs. BDL-E5^+ and BDL-E5^− cells sorted using FACS were seeded onto MEF-coated plates.
To investigate the quality of the BDL-E5^+ generated iPS cells, the iPS colonies were passaged for several generations. As shown in FIG. 10B(i), ASC-derived BDL-E5^+ colonies remained well self-renewed and TRA-1-60 positive for subsequent passages.

[3] = Absorption and emission maxima of the probe; assay type: physicochemical
Experimental: The chemical properties of the BDL library are previously described (Jeong et al., 2015). BDL-E5 is based on 4,4-difluoro-4-bora-3a,4a-diaza-s-indacene (BODIPY), with calculated mass of 528.3 and absorption maximum/emission maximum of 578/599 nm. Primary, secondary and tertiary screening of fluorescent probes on AiPS, ASCs, DiPS and DPSCs were performed as described previously (Im, et al. (2010). Angew Chem Int Ed Engl 49, 7497-7500; Kang, et al. (2011). Nat Protoc 6, 1044-1052) and in the Results section. Unless described otherwise, BDL-E5 and CDy1 images were acquired by the Tetramethylrhodamine (TRITC) channel of ImageXpress Micro High-Content Imaging System, which had the Adaptive Background Correction function enabled.

reprogramming ASCs = assay: BDL-E5 live staining time course of episomally reprogrammed ASCs on MG; assay type: cell-based, human
Experimental: as §1, §2, §3

COc1cc(F)c(/C=C/c2cc(C)c3n2[B-](F)(F)[N+]2=C(CCC(=O)NCCN(C)C)C=CC2=C3)cc1OC [BDL-E5]
subcellular organelle localization [1]: co-localize significantly with Golgi complex staining
intensity of fluorescence of staining at 7, 14, 21, 28 dpn (reprogramming DPSCs; iPS colonies formed from DPSCs): increased with increasing time
fate of stained cells tracked in the same field of view until colony formation (reprogramming DPSCs; reprogrammed DPSCs, staining every 48 h, 10-24 dpn): only cells staining positive for BDL-E5 formed iPS colonies
time at which positive cells/colonies were found (reprogramming DPSCs; reprogramming DPSCs, MG-coated plates, episomal feeder-free): 7 dpn
iPS colonies from BDL-E5+ versus BDL-E5- sorted cells ([2]; SC-ASCs sorted at 14 dpn): gave rise to more colonies than the BDL-E5^− population
percentage of cells staining negatively ([2]; SC-ASCs): ~11%
percentage of cells staining positively ([2]; SC-ASCs): ~33%
iPS colonies from BDL-E5+ versus BDL-E5- sorted cells ([2]; VS-ASCs sorted at 14 dpn): at least some BDL-E5^+ VS-ASCs gave rise to iPS colonies
percentage of cells staining negatively ([2]; VS-ASCs): ~24%
percentage of cells staining positively ([2]; VS-ASCs): ~19%
absorption maximum [3]: 578 nm
emission maximum [3]: 599 nm
intensity of fluorescence of staining at 7, 14, 21, 28 dpn (reprogramming ASCs; iPS colonies formed from ASCs): increased with increasing time
fate of stained cells tracked in the same field of view until colony formation (reprogramming ASCs; reprogrammed ASCs, staining every 48 h, 10-24 dpn): only cells staining positive for BDL-E5 formed iPS colonies
time at which positive cells/colonies were found (reprogramming ASCs; reprogramming ASCs, MG-coated plates, episomal feeder-free): around 14 dpn
